Publication PMC10674987, “Sweet Cherry Extract as Permeation Enhancer of Tyrosine Kinase Inhibitors: A Promising Prospective for Future Oral Anticancer Therapies” (Pharmaceuticals, 2023)
Where two headings read alike, the source gives them in different places.

Tests used:
[1] = previously published; cited from earlier work
[2] = human liver microsomes; previously published; cited from earlier work
Caco-2 monolayer = assay: Bidirectional permeability in Caco-2 cells in absence and presence of SCE; format: in vitro ADME, human; details: for Change of Papp A-B in presence of SCE vs Free / Change of Papp B-A in presence of SCE vs Free / Change of efflux ratio in presence of SCE vs Free: +SCE 1 mg/mL vs Free
Procedure: (§1) Caco-2 cells were seeded at a density of 2 × 10^4 on Transwell supports (0.4 µm pore polycarbonate membrane, 6.5 mm) and incubated overnight in a controlled atmosphere of 37 °C and 5% of CO2. The following day, the medium was changed to remove floating cells and fresh pre-warmed DMEM 20% was added (300 µL in the apical compartment and 1200 µL in the basal one). Cells were cultured for approximately 18–21 days in order to ensure that the cellular monolayers differentiated and many transport proteins and brush border hydrolases were expressed. Media were changed every 2–3 days.
(§2) For permeability studies, stock solutions of compounds were prepared by solubilizing 1.0 mg of accurately weighed powder with dimethyl sulfoxide (DMSO) and conserved at −20 °C. Immediately prior to the experiments, working solutions (WS) were prepared by diluting the stock solutions with pre-warmed HBSS to the final concentration of 10 µM. The final concentration of DMSO used never exceeded 0.1% v/v. The assays were performed in both the absorptive (from apical-to-basolateral compartment (A-B)) and the secretory direction (from basolateral-to-apical compartment (B-A)), both in the absence (Free) and presence of sweet cherry extract (+SCE [1 mg/mL]) diluted in HBSS. The final volumes used for the experiment were 300 µL in the apical compartment and 1200 µL in the basolateral one. Plates were incubated at 37 °C and maintained under gentle shaking (500 rpm) to reduce the effect of the unstirred water layer. At selected time points (T0–0.25–0.5–1–2 h-TEND for the A-B studies; T0–2 h–TEND for the B-A studies), samples (200 µL) were collected from the receiving compartments (from the basolateral compartment for the A-B assay; from the apical one for the B-A study) and replaced with the same volume of HBSS. The HPLC-UV/MS method was developed to quantify the amount of drug transferred across the cellular monolayer, and permeability (Papp, 10^−6 cm/s) and efflux ratio (ER) were calculated according to the following equations:Papp = (dQ/dt) × 1/(A × C0)(5) where dQ/dt is the steady-state flux (µmol s^−1), A is the area of the filter (cm^2), and C0 is the initial concentration in the donor compartment (µM). ER = (Papp B-A)/(Papp A-B)(6)
(§3) Chromatographic analyses were carried out using an Agilent 1260 Infinity HPLC-DAD system connected to an Agilent MSD 6130 system (Agilent Technologies, Palo Alto, CA, USA). At room temperature, a Kinetex C18-100 Å column (150 mm 4.6 mm, purchased from Phenomenex, Torrance, CA, USA) with a 5 µm particle size and gradient elution with a binary solution (eluent A: H2O, eluent B: ACN, both acidified with 0.1% v/v formic acid) was for the chromatographic separation. Analyses started with 5% B (from t = 0 to t = 1 min), then increased to 95% (from t = 1 to t = 10 min), then maintained at 95% (from t = 10 to t = 15 min), and finally returned to […] in 1.0 min. The volume injected was 10 µL, and the flow rate 600 µL/min. UV detection was monitored at 254 nm, and spectra were collected in both the positive and negative modes within the scan range of m/z 100–1500.

[3] = as above; format: in vitro ADME, human; details: human, 10 µM compound; for Papp A→B at 2 h, 10 µM: apical to basolateral; for Papp B→A at 2 h, 10 µM: basolateral to apical; for efflux ratio at 2 h, 10 µM: read-out: Efflux ratio (ER) (Papp B-A/Papp A-B)
Procedure: as §1, §2, §3

[4] = previously published; cited from earlier work; remark: listed apart in the source

Compound | melting point | PAMPA membrane retention (MR %) [1] | Metabolic Stability [2] | Change of Papp A-B in presence of SCE vs Free (Caco-2 monolayer) | Change of Papp B-A in presence of SCE vs Free (Caco-2 monolayer) | Change of efflux ratio in presence of SCE vs Free (Caco-2 monolayer) | Papp A→B at 2 h, 10 µM ([3]; Caco-2, +SCE [1 mg/mL]) | Papp B→A at 2 h, 10 µM ([3]; Caco-2, +SCE [1 mg/mL]) | efflux ratio at 2 h, 10 µM ([3]; Caco-2, +SCE [1 mg/mL]) | Papp A→B at 2 h, 10 µM ([3]; Caco-2, Free) | Papp B→A at 2 h, 10 µM ([3]; Caco-2, Free) | efflux ratio at 2 h, 10 µM ([3]; Caco-2, Free) | Water Solubility [4] | PAMPA Papp [1] | Efflux ratio (ER) (Papp B-A/Papp A-B) (Caco-2 monolayer; Free, 10 µM compound) | Caco-2 Papp A-B lower than PAMPA Papp (Caco-2 monolayer; Free)
Fc1ccc(C(Cl)Cn2ncc3c(NCc4ccccc4)ncnc32)cc1 (stereo not drawn) [Cpd 1] | 143 to 144 °C | 9.2% | 84.2% | about three and four times | more interesting implementation | almost halved | 16.167 ± 0.014 ×10⁻⁶ cm/s | 26.8 ± 3.68 ×10⁻⁶ cm/s | 1.66 ± 0.226 | 4.943 ± 0.044 ×10⁻⁶ cm/s | 15.1 ± 1.57 ×10⁻⁶ cm/s | ~3 |  |  |  | 
Oc1ccc(Cl)c(Nc2nc(SCCN3CCOCC3)nc3c2cnn3/C=C/c2ccccc2)c1 [Cpd 7] | 189 to 191 °C | 5.4% | 97.6% | almost doubled | only a slight increase | only a slight decrease | 1.17 ± 0.12 ×10⁻⁶ cm/s | 0.457 ± 0.108 ×10⁻⁶ cm/s | 0.387 ± 0.052 | < 0.5 ×10⁻⁶ cm/s | 0.229 ± 0.023 ×10⁻⁶ cm/s | 0.517 ± 0.014 | 0.036 µg/mL | 5.5 10^−6 cm/s | 0.481 ± 0.049 | 
CSc1nc(NCCc2ccccc2)c2cnn(CC(Cl)c3ccccc3)c2n1 (stereo not drawn) [Cpd 2] |  | 42.7% | 96.6% | almost doubled | significant reduction | nine-fold reduction | 0.224 ± 0.009 ×10⁻⁶ cm/s | 2.3 ± 0.279 ×10⁻⁶ cm/s | 10.2 ± 0.837 |  | 10.4 ± 0.363 ×10⁻⁶ cm/s | 97.3 ± 4.49 |  | 3.2 10^−6 cm/s |  | 
CC(Cn1ncc2c(Nc3cccc(O)c3)nc(NCCO)nc21)c1ccccc1 (stereo not drawn) [Cpd 4] |  | 1% | 99.4% | about three and four times | more interesting implementation | almost halved | 16.9 ± 0.743 ×10⁻⁶ cm/s | 53.3 ± 1.8 ×10⁻⁶ cm/s | 3.16 ± 0.245 | 5.11 ± 0.385 ×10⁻⁶ cm/s | 34.5 ± 0.817 ×10⁻⁶ cm/s | 6.77 ± 0.351 |  | lower than 1 10^−6 cm/s |  | 
CC(Cn1ncc2c(Nc3cc(O)ccc3Cl)nc(SCCN3CCOCC3)nc21)c1ccccc1 (stereo not drawn) [Cpd 5] |  | 6.6% | 97.9% | only a slight improvement | significant reduction | almost halved | 1.54 ± 0.095 ×10⁻⁶ cm/s | 5.99 ± 0.286 ×10⁻⁶ cm/s | 3.88 ± 0.054 | 1.25 ± 0.122 ×10⁻⁶ cm/s | 8.04 ± 0.183 ×10⁻⁶ cm/s | 6.46 ± 0.486 |  | over 10 10^−6 cm/s |  | ~10 fold
